Measured values as given in US6444862B1, “Synthesis and isolation of metal alkoxides” (Mine Safety Appliances Company, priority 2000, dated 2002).

Test: Solubility of metal alkoxide in solvent
Assay type: physicochemical
Conditions: solution in heptane
Description: To provide a safer material, metal alkoxides are often dissolved in a solvent. In general, liquids are, for example, easier to transfer from drums or cylinders into reactors (reducing the exposure of human handlers to dangerous materials), more easily kept under an inert atmosphere, and provide more options for modes of addition to the substrate. […] The low solubilities of many alkoxides have been attributed to the ionic character and the extent of oligomerization or polymerization in solution. Another factor affecting solubility in an alcohol solvent is the propensity of alkoxides to form insoluble alcoholate complexes with the alcohol. Metal alkoxides are somewhat more soluble in polar ethereal solvents such as tetrahydrofuran and the polyethers (glymes). However, even in ethers, the solubility is generally less than 50%, especially at or below room temperature (that is, at or below 25° C.). Moreover, the range of polar solvents is somewhat limited as a result of the reactivity of the alkoxide. Furthermore, in some cases the solvent of choice for the desired reaction involving a metal alkoxide is not compatible with the alkoxide or the metal alkoxide is insoluble therein.
In one set of studies, potassium 3,7-dimethyl-3-octanoxide (KDMO), was prepared by the reaction of potassium metal with 3,7-dimethyl-3-octanol in heptane in a pressure reaction vessel. […]

CCC(C)([O-])CCCC(C)C.[K+] (stereo not shown) [Example 1, Potassium 3,7-Dimethyl-3-octanoxide]
concentration of alkoxide solution prepared: 70-75 wt %
